From publication PMC5882164, “A novel calcimimetic agent, evocalcet (MT-4580/KHK7580), suppresses the parathyroid cell function with little effect on the gastrointestinal tract or CYP isozymes in vivo and in vitro” (PLoS ONE, 2018)
Values joined by “and” are separate entries in the source; they are usually repeats but may differ in a detail not shown here. Equal values may be shown once.

What was measured:
serum PTH = assay: 5/6 nephrectomized rats study: serum PTH level; assay type: in vivo, rat; details: 5/6 Nx rats; for Serum PTH levels before (day 0) and 24 h after evocalcet administration, Mean / Serum PTH levels after the first administration, Mean: group mean; for Serum PTH levels before (day 0) and 24 h after evocalcet administration: individual rats
Method: Rats were 5/6 nephrectomized in two steps. Under anesthesia (pentobarbital, 50 mg/kg; intraperitoneally) and analgesia (lidocaine; topically), two-thirds of the left kidney was removed, and then the right kidney was removed after a seven-day interval. Seven days after the completion of 5/6 nephrectomy, the FR-2 diet was changed to a high-phosphate diet, containing 0.6% calcium and 0.9% phosphate (Oriental Yeast Co., Ltd., Tokyo, Japan). Approximately 2 weeks after the initiation of the high-phosphate diet, the 5/6 Nx rats were divided into five groups (n = 12/group) matched in terms of their body weight as well as their blood urea nitrogen (BUN) and serum PTH and calcium levels.
(§1) In the single-dose study, blood samples were collected from the tail vein before and at 0.5, 2, 4, 8, 24, 48, and 72 h after the oral administration of vehicle (0.5% methyl cellulose solution) or evocalcet (0.03, 0.1, 0.3, or 1 mg/kg). In the repeated-dose study, vehicle or evocalcet was orally administered to the respective groups once daily for 14 days. Blood samples were obtained from the tail vein before the first administration and after the seventh and last administrations.
The serum PTH level was measured using a Rat Intact PTH ELISA kit (Immutopics, Inc., San Clemente, CA). The serum calcium, phosphate and BUN levels were measured using an auto analyzer (Hitachi High-Technologies Corporation., Tokyo, Japan) or the following test kits: the Calcium E-test WAKO, the Phospha C-test WAKO, or the Blood Urea nitrogen B-test WAKO (Wako Pure Chemical Industries, Ltd., Osaka, Japan).

[1] = Plasma concentrations of evocalcet after repeated oral administration to 5/6 nephrectomized rats; assay type: in vivo, rat; details: 5/6 Nx rats
Method: as §1
The plasma concentrations of evocalcet were determined after single or repeated oral administration in both normal and 5/6 Nx rats. The pharmacokinetic (PK) parameters of the rat plasma concentrations were calculated individually using Phoenix WinNonlin 6.2, a PK analysis software program (Pharsight Corporation, Sunnyvale, CA).

With `C[C@@H](N[C@H]1CCN(c2ccc(CC(=O)O)cc2)C1)c1cccc2ccccc12` [evocalcet] the “Serum PTH levels before (day 0) and 24 h after evocalcet administration, Mean” value (serum PTH; 0.3 mg/kg, day 0 (before)) was 2359.764, the “Serum PTH levels before (day 0) and 24 h after evocalcet administration” value (serum PTH; 0.3 mg/kg, day 0 (before), 0.3 mg/kg) was 1632.745 and 2446.532 and 2253.029 and 2449.574 and 3238.325 and 2017.644 and the “Serum PTH levels before (day 0) and 24 h after evocalcet administration, Mean” value (serum PTH; 0.3 mg/kg, day 7 (24 h)) was 387.934. The “Serum PTH levels before (day 0) and 24 h after evocalcet administration” value (serum PTH; 0.3 mg/kg, day 7 (24 h), 0.3 mg/kg) was 516.033 and 370.580 and 777.450 and 52.037 and 15.500 and 862.269, the “Serum PTH levels before (day 0) and 24 h after evocalcet administration, Mean” value (serum PTH; 0.3 mg/kg, day 14 (24 h)) was 440.352 and the “Serum PTH levels before (day 0) and 24 h after evocalcet administration” value (serum PTH; 0.3 mg/kg, day 14 (24 h), 0.3 mg/kg) was 134.323 and 160.654 and 218.153 and 43.180 and 221.109 and 481.197. The “Serum PTH levels after the first administration, Mean” value (serum PTH; 0.3 mg/kg, time 0 h) was 2359.764, the “Serum PTH levels after the first administration, Mean” value (serum PTH; 0.3 mg/kg, time 0.5 h) was 200.671 and the “Serum PTH levels after the first administration, Mean” value (serum PTH; 0.3 mg/kg, time 2 h) was 273.789. The “Serum PTH levels after the first administration, Mean” value (serum PTH; 0.3 mg/kg, time 4 h) was 614.302, the “Serum PTH levels after the first administration, Mean” value (serum PTH; 0.3 mg/kg, time 8 h) was 1297.802 and the “Serum PTH levels after the first administration, Mean” value (serum PTH; 0.3 mg/kg, time 24 h) was 1196.310. For the same compound, the “Serum PTH levels before (day 0) and 24 h after evocalcet administration, Mean” value (serum PTH; 1 mg/kg, day 0 (before)) was 2488.277, the “Serum PTH levels before (day 0) and 24 h after evocalcet administration” value (serum PTH; 1 mg/kg, day 0 (before), 1 mg/kg) was 3077.112 and 1497.503 and 1942.068 and 2386.399 and the “Serum PTH levels before (day 0) and 24 h after evocalcet administration, Mean” value (serum PTH; 1 mg/kg, day 7 (24 h)) was 641.383. The “Serum PTH levels before (day 0) and 24 h after evocalcet administration” value (serum PTH; 1 mg/kg, day 7 (24 h), 1 mg/kg) was 740.010 and 15.500 and 123.742, the “Serum PTH levels before (day 0) and 24 h after evocalcet administration, Mean” value (serum PTH; 1 mg/kg, day 14 (24 h)) was 594.302 and the “Serum PTH levels before (day 0) and 24 h after evocalcet administration” value (serum PTH; 1 mg/kg, day 14 (24 h), 1 mg/kg) was 671.158 and 155.818 and 37.909. The “Serum PTH levels after the first administration, Mean” value (serum PTH; 1 mg/kg, time 0 h) was 2488.277, the “Serum PTH levels after the first administration, Mean” value (serum PTH; 1 mg/kg, time 0.5 h) was 86.013 and the “Serum PTH levels after the first administration, Mean” value (serum PTH; 1 mg/kg, time 2 h) was 672.764. The “Serum PTH levels after the first administration, Mean” value (serum PTH; 1 mg/kg, time 4 h) was 302.274, the “Serum PTH levels after the first administration, Mean” value (serum PTH; 1 mg/kg, time 8 h) was 788.660 and the “Serum PTH levels after the first administration, Mean” value (serum PTH; 1 mg/kg, time 24 h) was 864.186. For the same compound, the “Doses that steadily decreased the serum PTH level” value (serum PTH; once daily oral for 14 days, 24 h after administration on days 7 and 14) was ≥ 0.3 mg/kg, the “Doses that significantly decreased the serum PTH level” value (serum PTH; single oral dose, vs vehicle group) was ≥ 0.1 mg/kg and the Plasma concentration ([1]; repeated oral 0.03 mg/kg, Day 1, 0.5 h, individual rats, 0.03 mg/kg) was 36.58 ng/mL and 70.85 ng/mL and 82.54 ng/mL and 69.68 ng/mL and 77.69 ng/mL and 41.93 ng/mL and 76.13 ng/mL. The Plasma concentration ([1]; repeated oral 0.03 mg/kg, Day 1, 0.5 h, mean) was 64.96 ng/mL, the Plasma concentration ([1]; repeated oral 0.03 mg/kg, Day 1, 24 h, individual rats, 0.03 mg/kg) was 1.641 ng/mL and 1.374 ng/mL and 5.810 ng/mL and 8.969 ng/mL and 1.766 ng/mL and 7.813 ng/mL and 3.603 ng/mL and the Plasma concentration ([1]; repeated oral 0.03 mg/kg, Day 1, 24 h, mean) was 4.696 ng/mL. The Plasma concentration ([1]; repeated oral 0.03 mg/kg, Day 7, 24 h, individual rats, 0.03 mg/kg) was 2.975 ng/mL and 2.144 ng/mL and 14.97 ng/mL and 24.57 ng/mL and 7.857 ng/mL and 2.119 ng/mL and 5.014 ng/mL, the Plasma concentration ([1]; repeated oral 0.03 mg/kg, Day 7, 24 h, mean) was 6.838 ng/mL and the Plasma concentration ([1]; repeated oral 0.03 mg/kg, Day 14, 0.5 h, individual rats, 0.03 mg/kg) was 19.34 ng/mL and 56.51 ng/mL and 53.07 ng/mL and 90.16 ng/mL and 75.39 ng/mL and 23.11 ng/mL and 72.02 ng/mL. For the same compound, the Plasma concentration ([1]; repeated oral 0.03 mg/kg, Day 14, 0.5 h, mean) was 51.46 ng/mL, the Plasma concentration ([1]; repeated oral 0.03 mg/kg, Day 14, 24 h, individual rats, 0.03 mg/kg) was 3.012 ng/mL and 3.971 ng/mL and 9.010 ng/mL and 15.92 ng/mL and 10.68 ng/mL and 0.6289 ng/mL and 6.008 ng/mL and the Plasma concentration ([1]; repeated oral 0.03 mg/kg, Day 14, 24 h, mean) was 9.081 ng/mL. For the same compound, the Plasma concentration ([1]; repeated oral 0.1 mg/kg, Day 1, 0.5 h, individual rats, 0.1 mg/kg) was 202.3 ng/mL and 254.1 ng/mL and 209.7 ng/mL and 142.8 ng/mL and 254.2 ng/mL and 143.9 ng/mL and 56.83 ng/mL and 269.5 ng/mL, the Plasma concentration ([1]; repeated oral 0.1 mg/kg, Day 1, 24 h, individual rats, 0.1 mg/kg) was 15.16 ng/mL and 12.10 ng/mL and 8.688 ng/mL and 14.16 ng/mL and 21.79 ng/mL and 16.89 ng/mL and 67.75 ng/mL and 32.61 ng/mL and the Plasma concentration ([1]; repeated oral 0.1 mg/kg, Day 7, 24 h, individual rats, 0.1 mg/kg) was 58.71 ng/mL and 48.75 ng/mL and 30.51 ng/mL and 37.24 ng/mL and 78.95 ng/mL and 69.59 ng/mL and 161.4 ng/mL and 61.03 ng/mL. For the same compound, the Plasma concentration ([1]; repeated oral 0.1 mg/kg, Day 14, 0.5 h, individual rats, 0.1 mg/kg) was 127.4 ng/mL and 39.41 ng/mL and 36.70 ng/mL and 54.83 ng/mL and 93.73 ng/mL and 108.2 ng/mL and 128.5 ng/mL and 174.0 ng/mL, the Plasma concentration ([1]; repeated oral 0.1 mg/kg, Day 14, 24 h, individual rats, 0.1 mg/kg) was 5.812 ng/mL and 5.988 ng/mL and 9.558 ng/mL and 3.499 ng/mL and 32.22 ng/mL and 49.20 ng/mL and 104.7 ng/mL and 11.96 ng/mL and the Plasma concentration ([1]; 0.03 mg/kg oral once daily, Day 1, 0.5 h, mean, n = 12) was 64.96 ng/mL. It also gave a Plasma concentration ([1]; 0.03 mg/kg oral once daily, Day 1, 24 h, mean, n = 12) of 4.696 ng/mL, a Plasma concentration ([1]; 0.03 mg/kg oral once daily, Day 7, 24 h, mean, n = 12) of 6.838 ng/mL and a Plasma concentration ([1]; 0.03 mg/kg oral once daily, Day 14, 0.5 h, mean, n = 12) of 51.46 ng/mL. The Plasma concentration ([1]; 0.03 mg/kg oral once daily, Day 14, 24 h, mean, n = 12) was 9.081 ng/mL, the Plasma concentration ([1]; 0.1 mg/kg oral once daily, Day 1, 0.5 h, mean, n = 12) was 204.2 ng/mL and the Plasma concentration ([1]; 0.1 mg/kg oral once daily, Day 1, 24 h, mean, n = 12) was 21.78 ng/mL. It also gave a Plasma concentration ([1]; 0.1 mg/kg oral once daily, Day 7, 24 h, mean, n = 12) of 53.46 ng/mL, a Plasma concentration ([1]; 0.1 mg/kg oral once daily, Day 14, 0.5 h, mean, n = 12) of 133.8 ng/mL and a Plasma concentration ([1]; 0.1 mg/kg oral once daily, Day 14, 24 h, mean, n = 12) of 29.24 ng/mL. The Plasma concentration ([1]; 0.3 mg/kg oral once daily, Day 1, 0.5 h, mean, n = 12) was 545.5 ng/mL, the Plasma concentration ([1]; 0.3 mg/kg oral once daily, Day 1, 24 h, mean, n = 12) was 90.48 ng/mL and the Plasma concentration ([1]; 0.3 mg/kg oral once daily, Day 7, 24 h, mean, n = 12) was 190.6 ng/mL. The Plasma concentration ([1]; 0.3 mg/kg oral once daily, Day 14, 0.5 h, mean, n = 12) was 686.9 ng/mL, the Plasma concentration ([1]; 0.3 mg/kg oral once daily, Day 14, 24 h, mean, n = 12) was 102.1 ng/mL and the Plasma concentration ([1]; 1 mg/kg oral once daily, Day 1, 0.5 h, mean, n = 12) was 1635 ng/mL. The Plasma concentration ([1]; 1 mg/kg oral once daily, Day 1, 24 h, mean, n = 12) was 285.7 ng/mL, the Plasma concentration ([1]; 1 mg/kg oral once daily, Day 7, 24 h, mean, n = 12) was 557.2 ng/mL and the Plasma concentration ([1]; 1 mg/kg oral once daily, Day 14, 0.5 h, mean, n = 12) was 1769 ng/mL. It also gave a Plasma concentration ([1]; 1 mg/kg oral once daily, Day 14, 24 h, mean, n = 12) of 490.6 ng/mL.
